viability, T/C data for four compounds are collected here from PubChem BioAssay AID1963831 (Molecular Pharmacology Branch, DTP, NCI, 2024).
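Note: spheroids exposed to compounds for seven days; 100% = DMSO vehicle control viability.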

One assay has as its system 889142-216-R-J1-PDC complex spheroid viability. The experiment in a line: Anticancer human tumor 889142-216-R-J1-PDC patient-derived bladder carcinoma cell line growth inhibition [POLQ]. To be noted: second compound 0.0316 µM; first compound 1 µM; hits give low values. The method in brief: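 PDC + HUVEC + MSC complex spheroids; POLQ inhibitors ± partner drugs; top conc. at/near clinical Cmax, else 10 microM (SN-38 1 microM), half-log dilutions; 37 degrees C, 5% CO2.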
`CNCc1ccc(-c2[nH]c3cc(F)cc4c3c2CCNC4=O)cc1` + Cc1cccc(N(C)C(=O)C2C(O)CCN2c2nc(C)cc(C(F)(F)F)c2C#N)c1: the viability, T/C was 92.7%.
On the same count and under the same terms, to `COc1cccc(OCCCN)c1-c1cc(Nc2cnc(C#N)cn2)n[nH]1` + Cc1cccc(N(C)C(=O)C2C(O)CCN2c2nc(C)cc(C(F)(F)F)c2C#N)c1 belongs 45%.

Still in this assay, the particulars now being: second compound 0.0316 µM; first compound 3.16 µM; hits give low values.
As to `CCCS(=O)(=O)Nc1ccc(F)c(C(=O)c2c[nH]c3ncc(-c4ccc(Cl)cc4)cc23)c1F` + Cc1cccc(N(C)C(=O)C2C(O)CCN2c2nc(C)cc(C(F)(F)F)c2C#N)c1, the viability, T/C is 83.5%.
The same measure, in the same setting: to `CNCc1ccc(-c2[nH]c3cc(F)cc4c3c2CCNC4=O)cc1` + Cc1cccc(N(C)C(=O)C2C(O)CCN2c2nc(C)cc(C(F)(F)F)c2C#N)c1 belongs 101%.

Still in this assay, the particulars now being: second compound 0.0316 µM; first compound 10 µM; hits give low values.
In the case of `CCCS(=O)(=O)Nc1ccc(F)c(C(=O)c2c[nH]c3ncc(-c4ccc(Cl)cc4)cc23)c1F` + Cc1cccc(N(C)C(=O)C2C(O)CCN2c2nc(C)cc(C(F)(F)F)c2C#N)c1, the viability, T/C was 50.5%.
Same read-out and setting: for `CNCc1ccc(-c2[nH]c3cc(F)cc4c3c2CCNC4=O)cc1` + Cc1cccc(N(C)C(=O)C2C(O)CCN2c2nc(C)cc(C(F)(F)F)c2C#N)c1 the value was 58.3%.

Staying with this assay, now noted: second compound 0.1 µM; first compound 0.00316 µM; hits give low values.
Turning to `C=CCn1c(=O)c2cnc(Nc3ccc(N4CCN(C)CC4)cc3)nc2n1-c1cccc(C(C)(C)O)n1` + Cc1cccc(N(C)C(=O)C2C(O)CCN2c2nc(C)cc(C(F)(F)F)c2C#N)c1, the viability, T/C is 99.3%.
Consider `COc1cccc(OCCCN)c1-c1cc(Nc2cnc(C#N)cn2)n[nH]1` + Cc1cccc(N(C)C(=O)C2C(O)CCN2c2nc(C)cc(C(F)(F)F)c2C#N)c1, for which the viability, T/C is 93.2%.

The same assay, now with this note: second compound 0.1 µM; first compound 0.01 µM; hits give low values.
As to `C=CCn1c(=O)c2cnc(Nc3ccc(N4CCN(C)CC4)cc3)nc2n1-c1cccc(C(C)(C)O)n1` + Cc1cccc(N(C)C(=O)C2C(O)CCN2c2nc(C)cc(C(F)(F)F)c2C#N)c1, the viability, T/C is 115%.
On the same count and under the same terms, to `COc1cccc(OCCCN)c1-c1cc(Nc2cnc(C#N)cn2)n[nH]1` + Cc1cccc(N(C)C(=O)C2C(O)CCN2c2nc(C)cc(C(F)(F)F)c2C#N)c1 belongs 95.6%.

The same assay, now with this note: second compound 0.1 µM; first compound 0.0316 µM; hits give low values.
As to `C=CCn1c(=O)c2cnc(Nc3ccc(N4CCN(C)CC4)cc3)nc2n1-c1cccc(C(C)(C)O)n1` + Cc1cccc(N(C)C(=O)C2C(O)CCN2c2nc(C)cc(C(F)(F)F)c2C#N)c1, the viability, T/C is 104%.
On the same count and under the same terms, for `CCCS(=O)(=O)Nc1ccc(F)c(C(=O)c2c[nH]c3ncc(-c4ccc(Cl)cc4)cc23)c1F` + Cc1cccc(N(C)C(=O)C2C(O)CCN2c2nc(C)cc(C(F)(F)F)c2C#N)c1 the value was 121%.
The same measure, in the same setting: to `CNCc1ccc(-c2[nH]c3cc(F)cc4c3c2CCNC4=O)cc1` + Cc1cccc(N(C)C(=O)C2C(O)CCN2c2nc(C)cc(C(F)(F)F)c2C#N)c1 belongs 91.9%; to `COc1cccc(OCCCN)c1-c1cc(Nc2cnc(C#N)cn2)n[nH]1` + Cc1cccc(N(C)C(=O)C2C(O)CCN2c2nc(C)cc(C(F)(F)F)c2C#N)c1, 59.3%.

The same assay, now with this note: second compound 0.1 µM; first compound 0.1 µM; hits give low values.
Consider `C=CCn1c(=O)c2cnc(Nc3ccc(N4CCN(C)CC4)cc3)nc2n1-c1cccc(C(C)(C)O)n1` + Cc1cccc(N(C)C(=O)C2C(O)CCN2c2nc(C)cc(C(F)(F)F)c2C#N)c1, for which the viability, T/C is 90.1%.
On the same count and under the same terms, for `CCCS(=O)(=O)Nc1ccc(F)c(C(=O)c2c[nH]c3ncc(-c4ccc(Cl)cc4)cc23)c1F` + Cc1cccc(N(C)C(=O)C2C(O)CCN2c2nc(C)cc(C(F)(F)F)c2C#N)c1 the value was 101%.
Still for that read-out and setting: to `CNCc1ccc(-c2[nH]c3cc(F)cc4c3c2CCNC4=O)cc1` + Cc1cccc(N(C)C(=O)C2C(O)CCN2c2nc(C)cc(C(F)(F)F)c2C#N)c1 belongs 87%; to `COc1cccc(OCCCN)c1-c1cc(Nc2cnc(C#N)cn2)n[nH]1` + Cc1cccc(N(C)C(=O)C2C(O)CCN2c2nc(C)cc(C(F)(F)F)c2C#N)c1, 52.3%.

Still in this assay, the particulars now being: second compound 0.1 µM; first compound 0.316 µM; hits give low values.
`C=CCn1c(=O)c2cnc(Nc3ccc(N4CCN(C)CC4)cc3)nc2n1-c1cccc(C(C)(C)O)n1` + Cc1cccc(N(C)C(=O)C2C(O)CCN2c2nc(C)cc(C(F)(F)F)c2C#N)c1: the viability, T/C is 106%.
The same measure, in the same setting: to `CCCS(=O)(=O)Nc1ccc(F)c(C(=O)c2c[nH]c3ncc(-c4ccc(Cl)cc4)cc23)c1F` + Cc1cccc(N(C)C(=O)C2C(O)CCN2c2nc(C)cc(C(F)(F)F)c2C#N)c1 belongs 91%; to `CNCc1ccc(-c2[nH]c3cc(F)cc4c3c2CCNC4=O)cc1` + Cc1cccc(N(C)C(=O)C2C(O)CCN2c2nc(C)cc(C(F)(F)F)c2C#N)c1, 95.9%; to `COc1cccc(OCCCN)c1-c1cc(Nc2cnc(C#N)cn2)n[nH]1` + Cc1cccc(N(C)C(=O)C2C(O)CCN2c2nc(C)cc(C(F)(F)F)c2C#N)c1, 49.4%.

Still in this assay, the particulars now being: second compound 0.1 µM; first compound 1 µM; hits give low values.
Turning to `C=CCn1c(=O)c2cnc(Nc3ccc(N4CCN(C)CC4)cc3)nc2n1-c1cccc(C(C)(C)O)n1` + Cc1cccc(N(C)C(=O)C2C(O)CCN2c2nc(C)cc(C(F)(F)F)c2C#N)c1, the viability, T/C is 54.4%.
Still for that read-out and setting: to `CCCS(=O)(=O)Nc1ccc(F)c(C(=O)c2c[nH]c3ncc(-c4ccc(Cl)cc4)cc23)c1F` + Cc1cccc(N(C)C(=O)C2C(O)CCN2c2nc(C)cc(C(F)(F)F)c2C#N)c1 belongs 96.5%; to `CNCc1ccc(-c2[nH]c3cc(F)cc4c3c2CCNC4=O)cc1` + Cc1cccc(N(C)C(=O)C2C(O)CCN2c2nc(C)cc(C(F)(F)F)c2C#N)c1, 91.7%; to `COc1cccc(OCCCN)c1-c1cc(Nc2cnc(C#N)cn2)n[nH]1` + Cc1cccc(N(C)C(=O)C2C(O)CCN2c2nc(C)cc(C(F)(F)F)c2C#N)c1, 42.9%.

Staying with this assay, now noted: second compound 0.1 µM; first compound 3.16 µM; hits give low values.
As to `CCCS(=O)(=O)Nc1ccc(F)c(C(=O)c2c[nH]c3ncc(-c4ccc(Cl)cc4)cc23)c1F` + Cc1cccc(N(C)C(=O)C2C(O)CCN2c2nc(C)cc(C(F)(F)F)c2C#N)c1, the viability, T/C is 81.3%.
Still for that read-out and setting: to `CNCc1ccc(-c2[nH]c3cc(F)cc4c3c2CCNC4=O)cc1` + Cc1cccc(N(C)C(=O)C2C(O)CCN2c2nc(C)cc(C(F)(F)F)c2C#N)c1 belongs 85.4%.

Staying with this assay, now noted: second compound 0.1 µM; first compound 10 µM; hits give low values.
Consider `CCCS(=O)(=O)Nc1ccc(F)c(C(=O)c2c[nH]c3ncc(-c4ccc(Cl)cc4)cc23)c1F` + Cc1cccc(N(C)C(=O)C2C(O)CCN2c2nc(C)cc(C(F)(F)F)c2C#N)c1, for which the viability, T/C was 48.8%.
On the same count and under the same terms, for `CNCc1ccc(-c2[nH]c3cc(F)cc4c3c2CCNC4=O)cc1` + Cc1cccc(N(C)C(=O)C2C(O)CCN2c2nc(C)cc(C(F)(F)F)c2C#N)c1 the value was 78.5%.

The assay is the same for the next values; noted with them: second compound 0.316 µM; first compound 0.00316 µM; hits give low values.
Take `C=CCn1c(=O)c2cnc(Nc3ccc(N4CCN(C)CC4)cc3)nc2n1-c1cccc(C(C)(C)O)n1` + Cc1cccc(N(C)C(=O)C2C(O)CCN2c2nc(C)cc(C(F)(F)F)c2C#N)c1: the viability, T/C is 129%.
On the same count and under the same terms, to `COc1cccc(OCCCN)c1-c1cc(Nc2cnc(C#N)cn2)n[nH]1` + Cc1cccc(N(C)C(=O)C2C(O)CCN2c2nc(C)cc(C(F)(F)F)c2C#N)c1 belongs 118%.

Staying with this assay, now noted: second compound 0.316 µM; first compound 0.01 µM; hits give low values.
As for `C=CCn1c(=O)c2cnc(Nc3ccc(N4CCN(C)CC4)cc3)nc2n1-c1cccc(C(C)(C)O)n1` + Cc1cccc(N(C)C(=O)C2C(O)CCN2c2nc(C)cc(C(F)(F)F)c2C#N)c1, the viability, T/C was 89.5%.
The same measure, in the same setting: to `COc1cccc(OCCCN)c1-c1cc(Nc2cnc(C#N)cn2)n[nH]1` + Cc1cccc(N(C)C(=O)C2C(O)CCN2c2nc(C)cc(C(F)(F)F)c2C#N)c1 belongs 62.3%.

Still in this assay, the particulars now being: second compound 0.316 µM; first compound 0.0316 µM; hits give low values.
For `C=CCn1c(=O)c2cnc(Nc3ccc(N4CCN(C)CC4)cc3)nc2n1-c1cccc(C(C)(C)O)n1` + Cc1cccc(N(C)C(=O)C2C(O)CCN2c2nc(C)cc(C(F)(F)F)c2C#N)c1, the viability, T/C was 99.2%.
The same measure, in the same setting: for `CCCS(=O)(=O)Nc1ccc(F)c(C(=O)c2c[nH]c3ncc(-c4ccc(Cl)cc4)cc23)c1F` + Cc1cccc(N(C)C(=O)C2C(O)CCN2c2nc(C)cc(C(F)(F)F)c2C#N)c1 the value was 110%; for `CNCc1ccc(-c2[nH]c3cc(F)cc4c3c2CCNC4=O)cc1` + Cc1cccc(N(C)C(=O)C2C(O)CCN2c2nc(C)cc(C(F)(F)F)c2C#N)c1, 92.8%.
Still for that read-out and setting: to `COc1cccc(OCCCN)c1-c1cc(Nc2cnc(C#N)cn2)n[nH]1` + Cc1cccc(N(C)C(=O)C2C(O)CCN2c2nc(C)cc(C(F)(F)F)c2C#N)c1 belongs 48.2%.

The same assay, now with this note: second compound 0.316 µM; first compound 0.1 µM; hits give low values.
Regarding `C=CCn1c(=O)c2cnc(Nc3ccc(N4CCN(C)CC4)cc3)nc2n1-c1cccc(C(C)(C)O)n1` + Cc1cccc(N(C)C(=O)C2C(O)CCN2c2nc(C)cc(C(F)(F)F)c2C#N)c1, the viability, T/C is 95.8%.
On the same count and under the same terms, for `CCCS(=O)(=O)Nc1ccc(F)c(C(=O)c2c[nH]c3ncc(-c4ccc(Cl)cc4)cc23)c1F` + Cc1cccc(N(C)C(=O)C2C(O)CCN2c2nc(C)cc(C(F)(F)F)c2C#N)c1 the value was 86.7%; for `CNCc1ccc(-c2[nH]c3cc(F)cc4c3c2CCNC4=O)cc1` + Cc1cccc(N(C)C(=O)C2C(O)CCN2c2nc(C)cc(C(F)(F)F)c2C#N)c1, 89.4%; for `COc1cccc(OCCCN)c1-c1cc(Nc2cnc(C#N)cn2)n[nH]1` + Cc1cccc(N(C)C(=O)C2C(O)CCN2c2nc(C)cc(C(F)(F)F)c2C#N)c1, 50.6%.

A word on the viability, T/C: it is the ratio of treated to control.
